Results on 9 compounds are retold here after US20240158368A1, “Pyrrolidine Main Protease Inhibitors as Antiviral Agents” (AbbVie Inc., priority 2022, published 2024).

Series [1] is described as follows: in vitro. The following applies: rat, microsomes, pH 7.4.
Series [2] addresses SARS-CoV-1 Mpro (Severe acute respiratory syndrome coronavirus (SARS-CoV), UniProt P0C6X7). The format is biochemical.
Series [3] deals with 229E Mpro (Human coronavirus 229E (HCoV-229E), UniProt P0C6X1). The format is biochemical.
Chain of 229E Mpro (P0C6X1 2966-3267 limits assumed): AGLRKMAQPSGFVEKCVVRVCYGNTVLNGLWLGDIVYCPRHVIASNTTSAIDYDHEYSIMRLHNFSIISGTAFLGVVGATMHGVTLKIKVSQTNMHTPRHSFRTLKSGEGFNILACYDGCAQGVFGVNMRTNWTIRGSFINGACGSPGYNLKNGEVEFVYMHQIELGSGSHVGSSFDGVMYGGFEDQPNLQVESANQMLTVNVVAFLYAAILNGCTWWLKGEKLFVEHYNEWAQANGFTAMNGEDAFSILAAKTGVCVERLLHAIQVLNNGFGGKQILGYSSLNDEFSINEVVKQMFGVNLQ
Series [4] can be described thus: in vitro. The following applies: PAMPA. On the technique in general: In PAMPA a lipid-coated filter parts donor from acceptor wells.
The target of series [5] is MERS Mpro (Middle East respiratory syndrome-related coronavirus (isolate United Kingdom/H123990006/2012) (MERS-CoV) (Betacoronavirus England 1), UniProt K9N7C7). The experiment in a line: biochemical.
Chain of MERS Mpro (K9N7C7 3248-3553 limits assumed): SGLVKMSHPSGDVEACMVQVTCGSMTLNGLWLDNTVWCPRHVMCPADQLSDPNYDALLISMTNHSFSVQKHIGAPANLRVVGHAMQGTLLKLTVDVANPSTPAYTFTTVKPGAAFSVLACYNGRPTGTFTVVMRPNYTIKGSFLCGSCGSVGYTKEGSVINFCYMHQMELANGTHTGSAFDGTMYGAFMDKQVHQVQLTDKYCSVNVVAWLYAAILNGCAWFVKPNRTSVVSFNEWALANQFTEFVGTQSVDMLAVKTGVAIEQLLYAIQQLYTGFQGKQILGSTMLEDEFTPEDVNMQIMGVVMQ
The nature of series [6]: in vitro. The following applies: human, microsomes, pH 7.4.
Series [7] addresses SARS-CoV-2 Mpro (Severe acute respiratory syndrome coronavirus 2 (2019-nCoV) (SARS-CoV-2), UniProt P0DTD1). The series is classed as biochemical.
Series [8] addresses OC43 Mpro (Human coronavirus OC43 (HCoV-OC43), UniProt P0C6X6). The series is classed as biochemical.
Series [9] relates to SARS-CoV-2 (strain USA-WA1/2020). The experiment in a line: microbe, parasite or virus in culture. The format is cell-based. The following applies: Severe acute respiratory syndrome coronavirus 2; HeLa-ACE2 cells; read-out: Antiviral CoV-2 EC50.

Each structure is given as a SMILES string.

Chain of OC43 Mpro (P0C6X6 3247-3549 limits assumed): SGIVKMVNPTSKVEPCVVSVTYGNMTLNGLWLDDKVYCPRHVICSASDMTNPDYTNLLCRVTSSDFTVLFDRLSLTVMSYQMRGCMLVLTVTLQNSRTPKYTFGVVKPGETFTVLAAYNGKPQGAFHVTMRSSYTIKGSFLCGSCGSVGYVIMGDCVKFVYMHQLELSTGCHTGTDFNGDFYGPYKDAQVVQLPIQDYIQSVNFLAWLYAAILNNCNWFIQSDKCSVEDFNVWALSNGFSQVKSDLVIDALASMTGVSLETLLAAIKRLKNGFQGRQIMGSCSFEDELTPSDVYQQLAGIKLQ

As for `NC(=O)c1cc(C(=O)N2CCOCC2)c(N2CC[C@@H](NC(=O)c3cc(=O)[nH]c4c(F)cccc34)C2)c(C(F)(F)F)c1` [Compound 35], the CLint scaled was 46.7 mL/min/kg in series [1] and under 28.3 mL/min/kg in series [6]. Also, the EC50 in series [2] is 2.45 nM; in series [3], 2.6 nM; in series [5], 0.93 nM; in series [7], 0.53 nM; in series [8], 16.5 nM. In [4], this compound had a Papp of 0.1 ×10⁻⁶ cm/s.
Turning to `N#Cc1cc(C(=O)N2CCOCC2)c(N2CC[C@@H](NC(=O)c3cc(=O)[nH]c4c(F)cccc34)C2)c(C2CC2)c1` [Compound 40], the results for the CLint scaled in [1] and in series [6] were 220 mL/min/kg and under 28.3 mL/min/kg, respectively. Also, the EC50 in series [3] is 2.47 nM; in series [5], 0.89 nM; in [9] it was 5 nM; in series [7], 0.42 nM; in [8], 0.55 nM. Besides, the Papp in series [4] is 5.15 ×10⁻⁶ cm/s.
Turning to `O=C(N[C@@H]1CCN(c2c(OC(F)(F)F)cc(Br)cc2C(=O)N2CCOCC2)C1)c1cc(=O)[nH]c2c(F)cccc12` [Compound 42], the CLint scaled was 482 mL/min/kg in [1] and 125 mL/min/kg in series [6]. Besides, the EC50 in [3] came out at 3.58 nM; in series [5] it was 1.05 nM; in series [9], 8.2 nM; in [7] it was 0.45 nM; in series [8], 1.4 nM. In [4], this compound displayed a Papp of 14.7 ×10⁻⁶ cm/s.
`O=C(N[C@@H]1CCN(c2c(OC(F)F)cc(Cl)cc2C(=O)N2CCOCC2)C1)c1cc(=O)[nH]c2c(F)cccc12` [Compound 43]: the values for the CLint scaled in series [1] and in series [6] were 312 mL/min/kg and 100 mL/min/kg, respectively. The concentration giving a half-maximal response (EC50) in series [3] was found to be 15 nM; in series [5], 1.41 nM; in series [9], 24.7 nM; in [7], 0.46 nM; in series [8], 3.17 nM. For the same compound, the Papp in series [4] stood at 12.7 ×10⁻⁶ cm/s.
Take `O=C(N[C@@H]1CCN(c2c(C(=O)N3CCOCC3)cc(Br)cc2C(F)(F)F)C1)c1cc(=O)[nH]c2c(F)ccc(F)c12` [Compound 52]: the CLint scaled in [1] was 452 mL/min/kg; in [6], 183 mL/min/kg. The EC50 in series [3] turned out to be 3.58 nM; in series [5], 1.03 nM; in [9], 9 nM; in [7], 0.43 nM; in series [8], 0.84 nM. The same compound displayed an apparent permeability (Papp) in [4] of 12.6 ×10⁻⁶ cm/s.
Regarding `O=C(N[C@@H]1CCN(c2c(C(=O)N3CCOCC3)cc(Br)cc2C(F)F)C1)c1c(F)c(=O)[nH]c2c(F)cccc12` [Compound 54], the CLint scaled in [1] is 257 mL/min/kg; in series [6] it was 140 mL/min/kg. For the same compound, the EC50 in series [3] was determined as 4.72 nM; in series [5], 1.12 nM; in [9], 5 nM; in [7] it was 0.43 nM; in [8], 0.42 nM. The compound further yielded an apparent permeability coefficient (Papp) in [4] of 13.1 ×10⁻⁶ cm/s.
On to `Cc1[nH]c(=O)cc(C(=O)N[C@@H]2CCN(c3c(C(=O)N4CCOCC4)cc(Br)cc3C(F)(F)F)C2)c1F` [Compound 59], for which the results for the intrinsic clearance (CLint scaled) in series [1] and in series [6] were under 68.3 mL/min/kg and under 61.7 mL/min/kg, respectively. Moreover, the concentration giving a half-maximal response (EC50) in series [3] is 20.4 nM; in series [5] it was 1.01 nM; in series [9], 95.6 nM; in [7], 1.11 nM; in series [8], 6.09 nM. The compound also showed a Papp in series [4] of 8.24 ×10⁻⁶ cm/s.
On to `COCCN1CCN(C(=O)c2cc(Br)cc(C(F)(F)F)c2N2CC[C@@H](NC(=O)c3cc(=O)[nH]c4c(F)cccc34)C2)CC1` [Compound 67], for which the CLint scaled in series [1] is 1180 mL/min/kg; in series [6], 313 mL/min/kg. Moreover, the EC50 in series [2] is 2.56 nM; in series [3], 4.22 nM; in series [5], 1.5 nM; in series [7], 0.5 nM; in series [8] it was 1.52 nM. Besides, in series [4], the Papp came out at 16.3 ×10⁻⁶ cm/s.
`O=C(N[C@@H]1CCN(c2c(C(=O)N3CCN4CCOCC4C3)cc(Br)cc2C(F)(F)F)C1)c1cc(=O)[nH]c2c(F)cccc12` (stereo partly drawn) [Compound 71]: the CLint scaled in series [1] is 358 mL/min/kg; in [6] it was 423 mL/min/kg. Besides, the EC50 in series [2] turned out to be 1.94 nM; in series [3] it was 3.84 nM; in series [5] it was 0.78 nM; in [7], 0.42 nM; in series [8], 0.66 nM. In addition, the Papp in [4] worked out at 18.8 ×10⁻⁶ cm/s.

What is called CLint scaled is a measure of how fast metabolising enzymes remove a compound, apart from limits set by blood flow. Read a high CLint scaled as rapid turnover. In general, EC50 refers to the midpoint of the concentration-response curve. The Papp is the rate of passage across a membrane or cell layer, normalised by area and donor concentration.
